pEC50, pIC50: −log10 of the molar value. Where a name gives a salt, the structure may show the parent alone.
How the values were obtained:
[1] = target: T1, human M3 muscarinic receptor (Homo sapiens, UniProt P20309); test: Inhibitory effect on methacholine-induced calcium influx, FLIPR assay, CHO-K1 cells stably expressing the human M3 muscarinic receptor; type: cell-based; details: inhibition of calcium influx induced by methacholine
T1 construct: expressed in transfected cells; host or cells: CHO-K1
Description: Muscarinic receptor subtypes (M1, M3 and M5 receptors), which couple to Gq proteins, activate the phospholipase C (PLC) pathway upon agonist binding to the receptor. As a result, the activated PLC hydrolyzes phosphatidyl inositol diphosphate (PIP2) to diacyl glycerol (DAG) and […] (IP3), which in turn generates calcium release from intracellular stores, i.e., endoplasmic and sarcoplasmic reticula. By utilizing FLIPR (Molecular Devices, Inc.) assay in which a calcium sensitive dye (Component A) is used that fluoresces when free calcium binds, the increase in intracellular calcium is measured on the basis of the change in the fluorescence intensity.
Methacholine was added to CHO-K1 cells stably expressing the human M3 muscarinic receptor to induce calcium influx and evaluate the inhibitory effect of test compounds. In the experiment, a FLIPR Calcium assay kit (Molecular Devices, Inc.) was used.
CHO-K1 cells stably expressing the human M3 muscarinic receptor suspended in Ham's F-12 media (Invitrogen, Co.) containing 10% fetal bovine serum (FBS) were seeded into 96-well FLIPR plates at a volume of 100 μL/well. Next day, 60 μL/well of Non-wash-dye solution (Hank's buffered salt solution, HBSS, containing 20 mM HEPES and 6.5 mM probenecid) was added to the cells, which were then incubated for an hour at 37° C. in the presence of 5% carbon dioxide. 20 μL of 10 concentrations of test compound solutions (HBSS containing 1% DMSO, 20 mM HEPES, 2.5 mM probenecid and 0.05% bovine serum albumin, BSA) prepared at concentrations in a range of 0.01-1000 nM with 2-fold serial dilution) were added, followed by incubation for 180 seconds. Then, 20 μL of 30 nM methacholine solution (HBSS containing 20 mM HEPES, 2.5 mM probenecid and 0.05% bovine serum albumin, BSA) was added, and fluorescence intensity was traced by the intracellular calcium influx measuring device FLIPR 96 (Molecular Devices, Inc.) for 170 seconds. The difference between the lowest and the highest values of the fluorescence intensity (FI) over the period of the measurement was used as a measured value. The percentages of inhibition by the test compounds were calculated according to the following formula from the measured value of the methacholin-added and test compound non-added sample (FIpositive), the measured value of the methacholin non-added and test compound non-added sample (FInegative), and the measured value of the methacholin-added and test compound-added sample (FItest). (%) Percentage of inhibition by test compound=[(1−(FItest−FInegative)/(FIpositive−FInegative)]×100
The 50% inhibitory concentrations (IC50 values) of test compounds were analyzed by a four-parameter logistic model using XLfit4 (IDBS, Ltd.) for the percentage of the inhibition by different concentrations of test compounds.

[2] = target: T2, human β2 adrenergic receptor (Homo sapiens, UniProt P07550); test: Whole-cell cAMP Flashplate assay using CHO-K1 cells stably expressing human β2 adrenergic receptor; type: cell-based; details: cAMP production
T2 construct: expressed in transfected cells; host or cells: CHO-K1
Experimental: The β2 adrenergic receptor, which couples to Gs proteins, activates adenylate cyclase upon agonist binding to the receptor. As a result, cAMP is produced in cells. The activation ability of the β2 adrenergic receptor can be measured by measuring the amount of the cAMP with cAMP-Screen System (Applied Biosystems).
CHO-K1 cells expressing the human β2 adrenergic receptor suspended in Ham's F-12 media containing 10% FBS were seeded into 96-well plates at a volume of 100 μL/well. Next day, they were washed with 200 μL PBS(−), to which 80 μL of 0.5 mM IBMX solution (Ham's F-12 media containing 0.05% BSA) was then added, followed by incubation for 20 minutes at 37° C. in the presence of 5% carbon dioxide. 20 μL of 9 concentrations of test compound solutions (0.5 mM IBMX solution containing 1% DMSO) prepared at concentrations in a range of 0.01-1000 nM with 2-fold serial dilution) were added, followed by incubation for 20 minutes at 37° C. in the presence of 5% carbon dioxide. Then, 100 μL of Assay/Lysis Buffer (a reagent that comes with cAMP Screen System) was added. The cells were lysed by pipetting, further incubated for 30 minutes at 37° C., and then frozen at −80° C. After several days, samples, thawed at room temperature, were treated according to the protocol of cAMP Screen System, and then chemiluminescence was measured by EnVision (PerkinElmer, Inc.). The amount of cAMP was calculated from the standard curve for the standard attached to cAMP Screen System.
The concentrations of a test compound at which 50% of its maximal effect is reached (EC50 values) were analyzed by a four-parameter logistic model using XLfit4 (IDBS, Ltd.) for the amounts of cAMP production at different concentrations of the test compounds.

T1 sequence (P20309 whole entry): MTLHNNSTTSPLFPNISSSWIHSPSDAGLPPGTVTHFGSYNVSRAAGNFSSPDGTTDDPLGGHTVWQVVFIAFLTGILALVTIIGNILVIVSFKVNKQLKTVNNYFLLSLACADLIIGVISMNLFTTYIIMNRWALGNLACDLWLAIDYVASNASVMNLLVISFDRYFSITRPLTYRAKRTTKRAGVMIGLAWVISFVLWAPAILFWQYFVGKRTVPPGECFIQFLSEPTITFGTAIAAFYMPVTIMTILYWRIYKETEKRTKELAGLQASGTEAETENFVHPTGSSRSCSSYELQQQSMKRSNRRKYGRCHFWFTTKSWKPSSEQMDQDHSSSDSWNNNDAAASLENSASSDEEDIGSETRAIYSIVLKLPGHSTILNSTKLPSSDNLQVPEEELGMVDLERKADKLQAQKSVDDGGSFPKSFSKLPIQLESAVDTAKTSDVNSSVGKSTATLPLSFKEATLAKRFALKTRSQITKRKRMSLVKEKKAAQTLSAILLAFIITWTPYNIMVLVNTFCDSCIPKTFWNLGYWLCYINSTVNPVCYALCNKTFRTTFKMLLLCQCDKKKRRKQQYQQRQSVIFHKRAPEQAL
T2 sequence (P07550 whole entry): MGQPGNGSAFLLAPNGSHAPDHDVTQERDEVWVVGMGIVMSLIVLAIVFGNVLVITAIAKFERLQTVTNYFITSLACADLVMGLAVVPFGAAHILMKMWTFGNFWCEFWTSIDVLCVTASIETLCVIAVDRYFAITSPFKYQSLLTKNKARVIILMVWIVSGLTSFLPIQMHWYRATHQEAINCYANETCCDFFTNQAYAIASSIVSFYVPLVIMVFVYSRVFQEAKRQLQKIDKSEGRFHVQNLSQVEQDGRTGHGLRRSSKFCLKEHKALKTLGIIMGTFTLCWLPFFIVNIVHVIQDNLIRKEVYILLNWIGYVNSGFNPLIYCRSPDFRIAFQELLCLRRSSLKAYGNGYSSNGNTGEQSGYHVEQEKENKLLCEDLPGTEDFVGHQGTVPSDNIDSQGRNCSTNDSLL

SMILES	pIC50 [1]	pEC50 [2]
C[N+]1(C)[C@@H]2CC(OC(=O)Nc3cc(CCC(=O)Nc4ccc(CNC[C@H](O)c5ccc(O)c6[nH]c(=O)ccc56)c(Cl)c4)ccc3-c3ccccc3)C[C@H]1[C@@H]1O[C@@H]12 (stereo partly drawn) [Example 45, (1R,2R,4S,5S,7S)-7-({[5-(2-{[3-chloro-4-({[(2R)-2-hydroxy-2-(8-hydroxy-2-oxo-1,2-dihydroquinolin-5-yl)ethyl]amino}methyl)phenyl]carbamoyl}ethyl)-2-phenylphenyl]carbamoyl}oxy)-9,9-dimethyl-3-oxa-9-azatricyclo[3.3.1.0^2,4]nonan-9-ium trifluoroacetate]	7.58	8.39
COc1cc(NC(=O)CCCc2ccc(NC(=O)O[C@@H]3C[C@@H]4[C@H]5O[C@H]5[C@H](C3)[N+]4(C)C)c(-c3ccccc3)c2)c(Br)cc1CNC[C@H](O)c1ccc(O)c2[nH]c(=O)ccc12 [Example 70, (1R,2R,4S,5S,7S)-7-({[4-(3-{[2-bromo-4-({[(2R)-2-hydroxy-2-(8-hydroxy-2-oxo-1,2-dihydroquinolin-5-yl)ethyl]amino}methyl)-5-methoxyphenyl]carbamoyl}propyl)-2-phenylphenyl]carbamoyl}oxy)-9,9-dimethyl-3-oxa-9-azatricyclo[3.3.1.0^2,4]nonan-9-ium trifluoroacetate]	7.22	9.70
C[N+]1(C)[C@@H]2C[C@@H](OC(=O)Nc3ccc(CCCC(=O)Nc4ccc(CNC[C@H](O)c5ccc(O)c6[nH]c(=O)ccc56)cc4Br)cc3-c3ccccc3)C[C@H]1[C@@H]1O[C@@H]12 [Example 72, (1R,2R,4S,5S,7S)-7-({[4-(3-{[2-bromo-4-({[(2R)-2-hydroxy-2-(8-hydroxy-2-oxo-1,2-dihydroquinolin-5-yl)ethyl]amino}methyl)phenyl]carbamoyl}propyl)-2-phenylphenyl]carbamoyl}oxy)-9,9-dimethyl-3-oxa-9-azatricyclo[3.3.1.0^2,4]nonan-9-ium trifluoroacetate]	7.31	9.52
COc1cc(NC(=O)CCc2ccc(-c3ccccc3)c(NC(=O)O[C@@H]3C[C@@H]4[C@H]5O[C@H]5[C@H](C3)[N+]4(C)C)c2)ccc1CNC[C@H](O)c1ccc(O)c2[nH]c(=O)ccc12 [Example 42, (1R,2R,4S,5S,7S)-7-({[5-(2-{[4-({[(2R)-2-hydroxy-2-(8-hydroxy-2-oxo-1,2-dihydroquinolin-5-yl)ethyl]amino}methyl)-3-methoxyphenyl]carbamoyl}ethyl)-2-phenylphenyl]carbamoyl}oxy)-9,9-dimethyl-3-oxa-9-azatricyclo[3.3.1.0^2,4]nonan-9-ium trifluoroacetate]	7.91	9.10
COc1cc(CNC[C@H](O)c2ccc(O)c3[nH]c(=O)ccc23)ccc1NC(=O)CCCc1ccc(-c2ccccc2)c(NC(=O)OC2C[C@@H]3[C@H]4O[C@H]4[C@H](C2)[N+]3(C)C)c1 (stereo partly drawn) [Example 38, (1R,2R,4S,5S,7S)-7-({[5-(3-{[4-({[(2R)-2-hydroxy-2-(8-hydroxy-2-oxo-1,2-dihydroquinolin-5-yl)ethyl]amino}methyl)-2-methoxyphenyl]carbamoyl}propyl)-2-phenylphenyl]carbamoyl}oxy)-9,9-dimethyl-3-oxa-9-azatricyclo[3.3.1.0^2,4]nonan-9-ium trifluoroacetate]	7.81	7.97

Other lines, results leading:

pIC50 [1]	pEC50 [2]	SMILES
7.38	8.25	C[N+]1(C)CCC(OC(=O)Nc2cc(CCC(=O)Nc3ccc(CCNC[C@H](O)c4ccc(O)c5[nH]c(=O)ccc45)cc3)ccc2-c2ccccc2)CC1 [Example 63, 4-({[5-(2-{[4-(2-{[(2R)-2-hydroxy-2-(8-hydroxy-2-oxo-1,2-dihydroquinolin-5-yl)ethyl]amino}ethyl)phenyl]carbamoyl}ethyl)-2-phenylphenyl]carbamoyl}oxy)-1,1-dimethylpiperidin-1-ium trifluoroacetate]
7.56	8.77	C[N+]1(C)[C@@H]2CC(OC(=O)Nc3cc(CCCCC(=O)Nc4ccc(CNC[C@H](O)c5ccc(O)c6[nH]c(=O)ccc56)cc4)ccc3-c3ccccc3)C[C@H]1[C@@H]1O[C@@H]12 (stereo partly drawn) [Example 50, (1R,2R,4S,5S,7S)-7-({[5-(4-{[4-({[(2R)-2-hydroxy-2-(8-hydroxy-2-oxo-1,2-dihydroquinolin-5-yl)ethyl]amino}methyl)phenyl]carbamoyl}butyl)-2-phenylphenyl]carbamoyl}oxy)-9,9-dimethyl-3-oxa-9-azatricyclo[3.3.1.0^2,4]nonan-9-ium trifluoroacetate]
7.42	7.85	C[N+]1(C)CCC(OC(=O)Nc2cc(CCCCCCCCCNC[C@H](O)c3ccc(O)c4[nH]c(=O)ccc34)ccc2-c2ccccc2)CC1 [Example 76, 4-({[5-(9-{[(2R)-2-hydroxy-2-(8-hydroxy-2-oxo-1,2-dihydroquinolin-5-yl)ethyl]amino}nonyl)-2-phenylphenyl]carbamoyl}oxy)-1,1-dimethylpiperidin-1-ium trifluoroacetate]
7.86	8.64	C[N+]1(C)CCC(OC(=O)Nc2cc(CCCCC(=O)Nc3ccc(CNC[C@H](O)c4ccc(O)c5[nH]c(=O)ccc45)cc3)ccc2-c2ccccc2)CC1 [Example 49, 4-({[5-(4-{[4-({[(2R)-2-hydroxy-2-(8-hydroxy-2-oxo-1,2-dihydroquinolin-5-yl)ethyl]amino}methyl)phenyl]carbamoyl}butyl)-2-phenylphenyl]carbamoyl}oxy)-1,1-dimethylpiperidin-1-ium trifluoroacetate]
7.68	9.05	C[N+]1(C)CCC(OC(=O)Nc2ccc(CCCC(=O)Nc3ccc(CNC[C@H](O)c4ccc(O)c5[nH]c(=O)ccc45)cc3)cc2-c2ccccc2)CC1 [Example 54, 4-({[4-(3-{[4-({[(2R)-2-hydroxy-2-(8-hydroxy-2-oxo-1,2-dihydroquinolin-5-yl)ethyl]amino}methyl)phenyl]carbamoyl}propyl)-2-phenylphenyl]carbamoyl}oxy)-1,1-dimethylpiperidin-1-ium trifluoroacetate]
7.35	7.80	C[N+]1(C)CCC(OC(=O)Nc2ccc(CCC(=O)Nc3ccc(CNC[C@H](O)c4ccc(O)c5[nH]c(=O)ccc45)cc3)cc2-c2ccccc2)CC1 [Example 69, 4-({[4-(2-{[4-({[(2R)-2-hydroxy-2-(8-hydroxy-2-oxo-1,2-dihydroquinolin-5-yl)ethyl]amino}methyl)phenyl]carbamoyl}ethyl)-2-phenylphenyl]carbamoyl}oxy)-1,1-dimethylpiperidin-1-ium trifluoroacetate]
7.29	8.82	C[N+]1(C)CCC(OC(=O)Nc2cc(CCC(=O)Nc3ccc(CCCNC[C@H](O)c4ccc(O)c5[nH]c(=O)ccc45)cc3)ccc2-c2ccccc2)CC1 [Example 62, 4-({[5-(2-{[4-(3-{[(2R)-2-hydroxy-2-(8-hydroxy-2-oxo-1,2-dihydroquinolin-5-yl)ethyl]amino}propyl)phenyl]carbamoyl}ethyl)-2-phenylphenyl]carbamoyl}oxy)-1,1-dimethylpiperidin-1-ium trifluoroacetate]

Reference: patent publication US9072734B2, “Quaternary ammonium salt compounds” (Teijin Pharma Limited, priority 2009, dated 2015)
